Entries after “also recorded” stand apart in the source; their conditions may differ.
Key:
ERα-SRC3 binding = target: T1, ERα-SRC3 binding (Homo sapiens, UniProt P03372); assay: NanoBiT ERα-SRC3 assay in HEK293T cells; type: cell-based; details: 1 μM antagonist + 1 nM E2, 4 h
T1 construct: expressed in transfected cells; host or cells: HEK293T, transient co-transfection of pcDNA3.1 plasmids (gift of D. P. McDonnell)
T1 sequence (P03372 1-595): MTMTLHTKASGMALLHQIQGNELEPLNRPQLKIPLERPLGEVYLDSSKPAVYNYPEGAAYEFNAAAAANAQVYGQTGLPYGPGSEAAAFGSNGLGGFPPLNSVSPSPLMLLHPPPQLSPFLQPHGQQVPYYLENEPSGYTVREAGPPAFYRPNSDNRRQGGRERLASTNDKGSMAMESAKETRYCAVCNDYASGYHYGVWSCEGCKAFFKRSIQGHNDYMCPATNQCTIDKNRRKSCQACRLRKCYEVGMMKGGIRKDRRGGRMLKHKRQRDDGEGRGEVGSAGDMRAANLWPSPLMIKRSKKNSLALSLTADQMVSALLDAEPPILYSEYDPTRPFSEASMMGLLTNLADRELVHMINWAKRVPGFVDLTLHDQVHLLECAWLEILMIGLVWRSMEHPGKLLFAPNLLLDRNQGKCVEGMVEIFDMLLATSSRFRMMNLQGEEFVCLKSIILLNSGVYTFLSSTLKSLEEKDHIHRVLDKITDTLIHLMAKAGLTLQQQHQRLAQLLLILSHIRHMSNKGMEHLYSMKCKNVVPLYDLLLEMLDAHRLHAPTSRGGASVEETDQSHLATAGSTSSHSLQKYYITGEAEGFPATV
Procedure: SERMs and SERDs favor an ERα LBD protein conformation that occludes transcriptional coactivator binding. We used nanoBiT to study how the first set of T6I molecules inhibited ERα and steroid receptor coactivator-3 (SRC3) binding in HEK293T cells. […] Plasmids for smBiT-ERα and lgBiT-SRC3 were kindly donated by Dr. Donald P. McDonnell. Plasmids were co-transfected into HEK293T cells and placed in serum-starved medium for 48 h.
HEK293T cells were grown in 96-well clear bottom, white-walled plates to around 70% confluence. PCDNA 3.1 plasmids containing N-terminally tagged smBiT ERα or lgBiT SRC3 nuclear recognition domain (NRD) were kindly donated by Dr. Donald P. McDonnell. These plasmids were co-transfected with a total of 0.1 µg smBiT ERα and 0.1 µg LgBiT SRC3 NRD using Turbofectin 8.0 at a 3:1 ratio. After 24 h cells were placed in serum-starved media and allowed to acclimate for an additional 48–72 h. […] Data shown are the average of three independent replicates.

ERα [1] = target: T2, ERα (Homo sapiens, UniProt P03372); assay: ERE transcriptional reporter gene assay in MCF7 cells; type: cell-based; design: endogenous in cells; host or cells: MCF7 cells with 3x-ERE-GFP reporter; details: MCF7, 1 nM E2
T2 sequence (P03372 1-595): T1 sequence (P03372 1-595)
Procedure: A cyclopropyl group was used in place of RAD1901’s ethylamine. […] We initially synthesized 4 derivatives comprised of different pharmacophores on the analogous steroidal A ring (Fig. 2d) and used an ERE reporter gene assay in MCF7 breast cancer cells to measure their transcriptional inhibitory activities.
This assay was performed in accordance with a previous report. MCF7 breast cancer cells with a 3x-estrogen response element-green fluorescent protein (GFP) reporter gene construct under a CMV promoter were plated in 96-well dishes at 3000 cells per well. Cells were cultured for 48 h in stripped media that included charcoal stripped fetal bovine serum (FBS). Cells were treated with increasing concentrations of antiestrogen (5 pm to 1 µM) for 24 h. Subsequently, percent GFP-positive cells were imaged using a BioTek Cytation 5 live cell imager. All assays were performed three times with three technical replicates each.

halo-ERα = target: T3, halo-ERα (Homo sapiens, UniProt P03372); assay: Live-cell halo-ERα accumulation assay in T47D cells; type: cell-based; details: 1 μM, 24 h
T3 construct: expressed in transfected cells; host or cells: T47D cells, doxycycline-inducible halo-ERα
T3 sequence (P03372 1-595): T1 sequence (P03372 1-595)
Source text: SERMs and SERDs differentially affect ERα cellular lifetime/accumulation, which correlates with tissue-specific partial agonistic activities. SERMs increase WT ERα lifetime and are partial agonists in the bone and uterine epithelium by maintaining AF-1-dependent transcriptional coactivator recruitment. SERDs induce rapid WT ERα degradation and are pure antagonists[14],[17],[19],[22],[33]. […] We used an in-cell Western approach to measure how a subset of T6Is affected ERα levels in MCF7:WS8 breast cancer cells. […] A live cell halo-tagged ERα assay was then used to measure the impact of an expanded set of T6Is on receptor accumulation in T47D breast cancer cells after 24 h treatment. […] The difference between T6I-14 and 4OHT was not statistically significant in this assay. […] The IC50 values generally trended with observed differences in transcriptional IC50 (Fig. 2), while the effect at maximum dose varied greatly.
This assay was performed in accordance with a previous report. T47D breast cancer cells with a halo-ERα under a doxycycline (dox) control were grown in 96-well dishes starting at 3000 cells per well. Cells were placed in serum-starved media for 48–72 h then simultaneously treated with 1 µg/mL dox, and 1 µM Halo-TMR direct (Promega, G2991) alongside 5 pm to 1 µM compound for 24 h. […]

[2] = system: Ishikawa endometrial cells; assay: Alkaline phosphatase (AP) assay in Ishikawa cells; type: cell-based, human; details: 1 nM E2 or 1 μM compound, 72 h, absorbance at 405 nm, mean + std. dev., n = 3-9
Source text: SERM enhancement of ERα accumulation in breast cancer cells correlates with uterotrophic activities[22],[30]. Despite the inclusion of side arms from known SERDs, most T6Is appeared SERM-like in breast cancer cells as they increased ERα levels. To measure the SERM-agonist activities of the T6Is, we employed an AP activity assay in Ishikawa endometrial cells[22],[32],[40]. […] Many T6Is show unexpected AP activities in these cells. […] Therefore, we would expect these SERMs to show a greater induction of AP (Supplementary Fig. 5). […] This difference was significant (p = 0.004) compared to 4OHT, which measured 0.68 ± 0.12 absorbance units. In most studies of SERM-agonist activities, AP assays are combined with increases in uterine wet-weight in vivo[22],[41],[42].
AP assays were performed as described. Briefly, 15,000 Ishikawa cells were seeded into 96-well plates then placed in serum-starved medium for 48–72 h. Cells were treated for three days with veh, hormone, SERM, or SERD. The media was aspirated and the cells were frozen at −80 °C for at least 24 h. Cells were thawed then incubated with p-nitrophenyl phosphate (ThermoFisher) chromogenic AP substrate. After 60 min at 40 °C, absorbance was read at 405 nm on a BioTek Cytation 5 plate reader.

MCF7 breast cancer cells = assay: Crystal violet cellular viability assay; type: cell-based; details: MCF7, 1 to 1000 nM, 1 nM E2, 7 days
Procedure: (§1) In addition, we used a crystal violet assay to measure the effect of T6I-14-1 on MCF7 viability.
MCF7 breast cancer cells were placed in 24-well dishes at 15,000 cells per well. After 24 h, they were placed in serum-starved media for 48 to 72 h. […] After treatment, cells were stained with 0.4% crystal violet in 50% methanol for 30 min. Cells were washed with PBS to remove excess dye. 500 µL of methanol was then added to each well to dissolve the dye and placed on a rocker for 30 min at room temperature and the absorbance at 570 was recorded.

T47D breast cancer cells = assay: Cellular proliferation (label-free cell count), T47D; type: cell-based; details: 0.1 and 1 μM, 1 nM E2
Procedure: as §1
MCF7, MCF7:WS:8, Y537S ESR1 MCF7 and T47D breast cancer cell lines were grown in 96-well dishes at a starting cell count of 1000 cells per well. […] Cells were grown in a BioSpa attached to a BioTek Cytation 5 and were automatically counted every twelve hours for 7–10 days or until the E2-only wells reached confluence. Media was replaced every 4 days and drug was maintained in each media change. Each study was repeated three times with three technical replicates each.

ERα [3] = target: T2, ERα; assay: In-cell Western of ERα levels in T47D cells; type: cell-based; design: In-cell Western of endogenous ERα levels normalized to cell count in T47D breast cancer cells; endogenous in cells; host or cells: T47D breast cancer cells; details: 1 μM
Procedure: An in-cell Western assay was used to measure the effect of the purified T6I-29 enantiomers on the accumulation of ERα in T47D breast cancer cells at 1 μM dose.
In-cell Western analysis was performed in a similar manner as previously described. Briefly, T47D or MCF7:WS8 breast cancer cells were grown in blackout 96-well plates starting at 3000 cells per well. After 24 h, cells were placed in serum-starved media and allowed to acclimate for 48–72 h. Cells were treated with hormone, SERM, or SERD alongside vehicle control for 24 h. Only interior wells were used to avoid edge effects. Cells were fixed with 4% formaldehyde and permeabilized with 0.1% Triton X-100. Plates were blocked with Intercept blocking buffer (LI-COR). Santa Cruz F10 anti-ERα antibody (sc-8002) was used as the primary at 1:200-500 dilution. Secondary antibody was a goat anti-mouse IgG 800 IRDye antibody (926-32210) from LI-COR. Cells were also treated with CellTag700 (926-41090) to control for differences in cell count between wells. All data were collected on a LI-COR Odyssey DLx and analyzed using Emperia Studio. Each experiment was comprised of three replicates.

[4] = system: gene expression in MCF7:WS8 breast cancer cells; assay: qPCR gene expression in MCF7:WS8 cells
[5] = system: gene expression in T47D breast cancer cells; assay: qPCR gene expression in T47D cells; type: cell-based; details: 1 μM + 1 nM E2, 16 h
SUMO1 = SUMO1 immunofluorescence in T47D cells; type: cell-based; details: 1 µM, 16 h
Procedure: Immunofluorescence was used to study the effects of these treatments on SUMO1 protein expression in these cells. […] Cellular localization was resolved using phalloidin to stain actin and DAPI to stain nuclei. […] Further studies are needed to decipher the role and estrogen dependence of SUMO1 in ER + breast cancer pathology.
T47D cells were cultured on coverslips for 24 h followed by 48 h growth in serum starved media. […] Cells were fixed for 10 min with 4% paraformaldehyde at room temperature was followed by three washes with ice-cold PBS-T (0.1% Tween 20, PBS) and 10 min of permeabilization with 0.5% saponin in PBS. Blocking was performed with 1% bovine serum albumin (BSA) in PBS-T for 30 min. Cells were incubated in a humidified chamber with 1:500 rabbit monoclonal anti-SUMO1 antibody (Abcam Ltd, Cambridge, UK, ab32058) in 1% BSA for 1 h at room temperature. Cells were washed 3 times with PBS-T, then incubated in the dark for 1 h with 1:1000 goat anti-rabbit IgG H&L (Alexa Fluor® 488) antibody (Abcam Ltd, ab150077) as well as 1:1000 phalloidin-iFluor 594 reagent (Abcam Ltd, ab176757) in 1% BSA. […] Quantification of nuclear fluorescent signal was performed using ImageJ 1.53t software. Fluorescent intensity of all nuclei within captured frames were measured and normalized by subtracting mean background fluorescence of 5 representative areas.

[6] = system: transcriptome of T47D breast cancer cells; assay: RNA sequencing of T47D cells; type: cell-based
Procedure: We next used RNA transcriptomic analysis (RNAseq) to identify differentially affected genes. […] All sequencing runs were performed with three replicates per treatment.
T47D breast cancer cells were grown in 6-well dishes at 50,000 cells per well. […] After 24 h, they were placed in serum-starved media for 48 h. […] RNA was isolated using a Qiagen RNeasy Kit then sent to Novogene for sequencing and bioinformatics analysis.

anti-transcriptional activity (in words) (ERα [1]) | ERα levels by in-cell Western (ERα [3]) | Compound | inhibition of ERα-SRC3 binding (luminescence) (ERα-SRC3 binding) | halo-ERα accumulation at maximum dose (halo-ERα) | AP1 Induction [2] | cellular viability (crystal violet) (MCF7 breast cancer cells) | cell count after 7 days (fold-change normalized to vehicle) (T47D breast cancer cells) | CDK1 mRNA ([4]; MCF7:WS8) | E2F1, CDK1 and SUMO1 mRNA ([4]; MCF7:WS8, compared with T47D) | E2F1 mRNA [5] | SUMO1 protein expression (immunofluorescence) (SUMO1) | SUMO-related differentially expressed genes (RNAseq) [6] | Reactome pathways relating to SUMO E3 ligases ([6]; 1 μM + 1 nM E2)
ineffective anti-transcriptional agent | – | CCN1CC(Oc2ccc(C3c4ccc(O)cc4CC4(CC4)N3C(=O)c3ccccc3)cc2)C1 (stereo not shown) [T6I-1] | the least | SERD-like decrease to ERα levels; also recorded: weak ERα-degrading activities | 0.30 + 0.07 | – | – | – | – | – | – | – | –
– | enhanced ERα levels past 4OHT | CCCN1CCC(COc2ccc(C3c4ccc(O)cc4CC4(CC4)N3C(=O)c3ccccc3)cc2)C1 (stereo not shown) [T6I-14-1] | among the most potent; also recorded: significant reduction compared to both 4OHT (p = 0.03) and E2 (p = 0.004) | – | 0.55 + 0.09 | reduced MCF7 cellular viability across all doses compared to 4OHT and ICI | significantly more effective (p = 0.01) than ICI | – | – | – | – | – | –
– | – | C[C@]12CC[C@@H]3c4ccc(O)cc4C[C@@H](CCCCCCCCC[S+]([O-])CCCC(F)(F)C(F)(F)F)[C@H]3[C@@H]1CC[C@@H]2O (stereo partly shown) [ICI, fulvestrant] | – | – | 0.25 + 0.08 | – | – | downregulated its expression | greater downregulation of E2F1 and CDK1 and upregulation of SUMO1 | reduced impact | enriched SUMO1 expression in the nuclei | upregulated SUMO1 and downregulated the SENP enzymes | significantly enriched

From PMC9748900, “Unconventional isoquinoline-based SERMs elicit fulvestrant-like transcriptional programs in ER+ breast cancer cells” (NPJ Breast Cancer, 2022)
